In PubChem BioAssay (NCI):
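How tested: cells in 96-well plates exposed to compound for 48 hours at five concentrations. GI50 is the concentration that inhibits growth by half. TGI: total growth inhibition.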

How the values were obtained:
Experiment in all cases: growth of human tumour cells (NCI), 48 h
UO-31 renal = system: UO-31 renal
786-0 renal = system: 786-0 renal
OVCAR-8 ovarian = system: OVCAR-8 ovarian
CCRF-CEM leukemia = system: CCRF-CEM leukemia
SK-MEL-28 melanoma = system: SK-MEL-28 melanoma
TK-10 renal = system: TK-10 renal
RPMI-8226 leukemia = system: RPMI-8226 leukemia
UACC-62 melanoma = system: UACC-62 melanoma
HOP-92 NSCLC = system: HOP-92 NSCLC
SW-620 colon = system: SW-620 colon
HS 578T breast = system: HS 578T breast
SK-MEL-5 melanoma = system: SK-MEL-5 melanoma
CAKI-1 renal = system: CAKI-1 renal
MALME-3M melanoma = system: MALME-3M melanoma
HCT-116 colon = system: HCT-116 colon
MCF7 breast = system: MCF7 breast
SF-295 CNS = system: SF-295 CNS
OVCAR-4 ovarian = system: OVCAR-4 ovarian
NCI-H522 lung = system: NCI-H522 lung
SK-MEL-2 melanoma = system: SK-MEL-2 melanoma
A498 renal = system: A498 renal
SF-539 CNS = system: SF-539 CNS
ACHN renal = system: ACHN renal
BT-549 breast = system: BT-549 breast
HOP-62 NSCLC = system: HOP-62 NSCLC
OVCAR-5 ovarian = system: OVCAR-5 ovarian
M14 melanoma = system: M14 melanoma
EKVX NSCLC = system: EKVX NSCLC
KM12 colon = system: KM12 colon
HCC-2998 colon = system: HCC-2998 colon
NCI-H226 lung = system: NCI-H226 lung
HT29 colon = system: HT29 colon
SNB-19 CNS = system: SNB-19 CNS
SK-OV-3 ovarian = system: SK-OV-3 ovarian
NCI-H23 lung = system: NCI-H23 lung
MDA-MB-231 breast = system: MDA-MB-231 breast
SF-268 CNS = system: SF-268 CNS
DU-145 prostate = system: DU-145 prostate
IGROV1 ovarian = system: IGROV1 ovarian
NCI-H460 lung = system: NCI-H460 lung
MDA-MB-435 = system: MDA-MB-435
HL-60(TB) leukemia = system: HL-60(TB) leukemia
HCT-15 colon = system: HCT-15 colon
U251 CNS = system: U251 CNS
UACC-257 melanoma = system: UACC-257 melanoma
NCI/ADR-RES ovarian = system: NCI/ADR-RES ovarian
SNB-75 CNS = system: SNB-75 CNS
SN12C renal = system: SN12C renal
A549 NSCLC = system: A549 NSCLC
PC-3 prostate = system: PC-3 prostate
RXF 393 renal = system: RXF 393 renal
OVCAR-3 ovarian = system: OVCAR-3 ovarian
K-562 leukemia = system: K-562 leukemia
SR leukemia = system: SR leukemia
MOLT-4 leukemia = system: MOLT-4 leukemia
LOX IMVI melanoma = system: LOX IMVI melanoma

SMILES: COc1ccc(OC)c(-c2cn3nc(-c4c[nH]c5ccc(Br)cc45)sc3n2)c1
- GI50 (UO-31 renal): 1.67 µM
- TGI (UO-31 renal): 11.2 µM
- GI50 (786-0 renal): 2.16 µM
- TGI (786-0 renal): 4.57 µM
- GI50 (OVCAR-8 ovarian): 3.01 µM
- TGI (OVCAR-8 ovarian): 9.3 µM
- GI50 (CCRF-CEM leukemia): 3.73 µM
- TGI (CCRF-CEM leukemia): > 100 µM
- GI50 (SK-MEL-28 melanoma): 3.29 µM
- TGI (SK-MEL-28 melanoma): 11.7 µM
- GI50 (TK-10 renal): 3.18 µM
- TGI (TK-10 renal): 6.54 µM
- GI50 (RPMI-8226 leukemia): 3.19 µM
- TGI (RPMI-8226 leukemia): 20.4 µM
- GI50 (UACC-62 melanoma): 3.15 µM
- TGI (UACC-62 melanoma): 13.2 µM
- GI50 (HOP-92 NSCLC): 2.01 µM
- TGI (HOP-92 NSCLC): 5.68 µM
- GI50 (SW-620 colon): 2.26 µM
- TGI (SW-620 colon): 5.28 µM
- GI50 (HS 578T breast): 2.87 µM
- TGI (HS 578T breast): 14.5 µM
- GI50 (SK-MEL-5 melanoma): 3.86 µM
- TGI (SK-MEL-5 melanoma): 15.2 µM
- GI50 (CAKI-1 renal): 2.04 µM
- TGI (CAKI-1 renal): 6.22 µM
- GI50 (MALME-3M melanoma): 2.25 µM
- TGI (MALME-3M melanoma): 4.93 µM
- GI50 (HCT-116 colon): 1.67 µM
- TGI (HCT-116 colon): 3.28 µM
- GI50 (MCF7 breast): 1.77 µM
- TGI (MCF7 breast): 5.13 µM
- GI50 (SF-295 CNS): 4.7 µM
- TGI (SF-295 CNS): 16.3 µM
- GI50 (OVCAR-4 ovarian): 1.8 µM
- TGI (OVCAR-4 ovarian): 3.8 µM
- GI50 (NCI-H522 lung): 1.98 µM
- TGI (NCI-H522 lung): 4.81 µM
- GI50 (SK-MEL-2 melanoma): 3.33 µM
- TGI (SK-MEL-2 melanoma): 13.4 µM
- GI50 (A498 renal): 10.2 µM
- TGI (A498 renal): 24.6 µM
- GI50 (SF-539 CNS): 1.78 µM
- TGI (SF-539 CNS): 3.41 µM
- GI50 (ACHN renal): 2.02 µM
- TGI (ACHN renal): 6.49 µM
- GI50 (BT-549 breast): 2.9 µM
- TGI (BT-549 breast): 11.2 µM
- GI50 (HOP-62 NSCLC): 2.7 µM
- TGI (HOP-62 NSCLC): 13.3 µM
- GI50 (OVCAR-5 ovarian): 3.52 µM
- TGI (OVCAR-5 ovarian): 15.6 µM
- GI50 (M14 melanoma): 2.1 µM
- TGI (M14 melanoma): 4.75 µM
- GI50 (EKVX NSCLC): 2.83 µM
- TGI (EKVX NSCLC): 11.4 µM
- GI50 (KM12 colon): 2.19 µM
- TGI (KM12 colon): 6.24 µM
- GI50 (HCC-2998 colon): 2.67 µM
- TGI (HCC-2998 colon): 7.75 µM
- GI50 (NCI-H226 lung): 10.3 µM
- TGI (NCI-H226 lung): 39.8 µM
- GI50 (HT29 colon): 2.28 µM
- TGI (HT29 colon): 4.75 µM
- GI50 (SNB-19 CNS): 4.51 µM
- TGI (SNB-19 CNS): 18.6 µM
- GI50 (SK-OV-3 ovarian): 9.01 µM
- TGI (SK-OV-3 ovarian): 22.8 µM
- GI50 (NCI-H23 lung): 1.99 µM
- TGI (NCI-H23 lung): 4.82 µM
- GI50 (MDA-MB-231 breast): 1.73 µM
- TGI (MDA-MB-231 breast): 4.05 µM
- GI50 (SF-268 CNS): 2.7 µM
- TGI (SF-268 CNS): 7.6 µM
- GI50 (DU-145 prostate): 2.8 µM
- TGI (DU-145 prostate): 7.71 µM
- GI50 (IGROV1 ovarian): 2.27 µM
- TGI (IGROV1 ovarian): 11.5 µM
- GI50 (NCI-H460 lung): 2.04 µM
- TGI (NCI-H460 lung): 4.17 µM
- GI50 (MDA-MB-435): 2.42 µM
- TGI (MDA-MB-435): 5.83 µM
- GI50 (HL-60(TB) leukemia): 9.21 µM
- TGI (HL-60(TB) leukemia): > 100 µM
- GI50 (HCT-15 colon): 2.11 µM
- TGI (HCT-15 colon): 5.47 µM
- GI50 (U251 CNS): 2.02 µM
- TGI (U251 CNS): 4.09 µM
- GI50 (UACC-257 melanoma): 7.45 µM
- TGI (UACC-257 melanoma): 30.7 µM
- GI50 (NCI/ADR-RES ovarian): 3.38 µM
- TGI (NCI/ADR-RES ovarian): 10.9 µM
- GI50 (SNB-75 CNS): 3.72 µM
- TGI (SNB-75 CNS): 24.3 µM
- GI50 (SN12C renal): 2.74 µM
- TGI (SN12C renal): 10 µM
- GI50 (A549 NSCLC): 2.31 µM
- TGI (A549 NSCLC): 5.31 µM
- GI50 (PC-3 prostate): 1.87 µM
- TGI (PC-3 prostate): 4.66 µM
- GI50 (RXF 393 renal): 3.19 µM
- TGI (RXF 393 renal): 8.82 µM
- GI50 (OVCAR-3 ovarian): 1.96 µM
- TGI (OVCAR-3 ovarian): 4.32 µM

SMILES: COc1cc2c(C#N)n3c(c2cc1OC)C(=O)C(c1ccccc1)Oc1ccccc1-3 (centres undefined)
- GI50 (786-0 renal): 5.7 µM
- TGI (786-0 renal): 39.1 µM
- GI50 (OVCAR-8 ovarian): 2.76 µM
- TGI (OVCAR-8 ovarian): > 100 µM
- GI50 (CCRF-CEM leukemia): 2.72 µM
- TGI (CCRF-CEM leukemia): 8.51 µM
- GI50 (SK-MEL-28 melanoma): > 100 µM
- TGI (SK-MEL-28 melanoma): > 100 µM
- GI50 (TK-10 renal): 3.35 µM
- TGI (TK-10 renal): 21.3 µM
- GI50 (HOP-92 NSCLC): 1.46 µM
- TGI (HOP-92 NSCLC): 5.52 µM
- GI50 (HS 578T breast): 4.62 µM
- TGI (HS 578T breast): 65.5 µM
- GI50 (K-562 leukemia): 3.08 µM
- TGI (K-562 leukemia): > 100 µM
- GI50 (MALME-3M melanoma): > 100 µM
- TGI (MALME-3M melanoma): > 100 µM
- GI50 (HCT-116 colon): 3.23 µM
- TGI (HCT-116 colon): > 100 µM
- GI50 (SF-295 CNS): 4.1 µM
- TGI (SF-295 CNS): > 100 µM
- GI50 (OVCAR-4 ovarian): 2.89 µM
- TGI (OVCAR-4 ovarian): > 100 µM
- GI50 (A498 renal): 1.85 µM
- TGI (A498 renal): 9.15 µM
- GI50 (SF-539 CNS): 19.8 µM
- TGI (SF-539 CNS): > 100 µM
- GI50 (BT-549 breast): 1.97 µM
- TGI (BT-549 breast): 5.54 µM
- GI50 (HOP-62 NSCLC): 3.64 µM
- TGI (HOP-62 NSCLC): > 100 µM
- GI50 (KM12 colon): 3.36 µM
- TGI (KM12 colon): > 100 µM
- GI50 (HCC-2998 colon): > 100 µM
- TGI (HCC-2998 colon): > 100 µM
- GI50 (NCI-H226 lung): 2.9 µM
- TGI (NCI-H226 lung): > 100 µM
- GI50 (SNB-19 CNS): 3.53 µM
- TGI (SNB-19 CNS): > 100 µM
- GI50 (SK-OV-3 ovarian): 21.1 µM
- TGI (SK-OV-3 ovarian): > 100 µM
- GI50 (NCI-H23 lung): 3.04 µM
- TGI (NCI-H23 lung): > 100 µM
- GI50 (SR leukemia): 2.58 µM
- TGI (SR leukemia): > 100 µM
- GI50 (MOLT-4 leukemia): 5.37 µM
- TGI (MOLT-4 leukemia): > 100 µM
- GI50 (MDA-MB-231 breast): 4.05 µM
- TGI (MDA-MB-231 breast): 68.6 µM
- GI50 (SF-268 CNS): 3.32 µM
- TGI (SF-268 CNS): > 100 µM
- GI50 (DU-145 prostate): 91 µM
- TGI (DU-145 prostate): > 100 µM
- GI50 (IGROV1 ovarian): 7.41 µM
- TGI (IGROV1 ovarian): > 100 µM
- GI50 (LOX IMVI melanoma): 3.18 µM
- TGI (LOX IMVI melanoma): > 100 µM
- GI50 (U251 CNS): 2.77 µM
- TGI (U251 CNS): > 100 µM
- GI50 (NCI/ADR-RES ovarian): 3.05 µM
- TGI (NCI/ADR-RES ovarian): > 100 µM
- GI50 (SNB-75 CNS): 4.39 µM
- TGI (SNB-75 CNS): 24.6 µM
- GI50 (A549 NSCLC): 2.87 µM
- TGI (A549 NSCLC): > 100 µM
- GI50 (RXF 393 renal): 3.29 µM
- TGI (RXF 393 renal): 19.5 µM
- GI50 (OVCAR-3 ovarian): 4.48 µM
- TGI (OVCAR-3 ovarian): > 100 µM
